Experimental data as given in US8030083B2, “Method of analyzing protein structural affinity relationship” (Eisai R & D Management Co., Ltd., priority 2004, dated 2011).

What was measured:
[1] = water solubility; assay type: physicochemical
[2] = target: T1, mitochondrial malate dehydrogenase (mMDH) (Homo sapiens, UniProt P40926); settings: Knockaert et al.; cited from earlier work
T1 sequence (P40926 25-338): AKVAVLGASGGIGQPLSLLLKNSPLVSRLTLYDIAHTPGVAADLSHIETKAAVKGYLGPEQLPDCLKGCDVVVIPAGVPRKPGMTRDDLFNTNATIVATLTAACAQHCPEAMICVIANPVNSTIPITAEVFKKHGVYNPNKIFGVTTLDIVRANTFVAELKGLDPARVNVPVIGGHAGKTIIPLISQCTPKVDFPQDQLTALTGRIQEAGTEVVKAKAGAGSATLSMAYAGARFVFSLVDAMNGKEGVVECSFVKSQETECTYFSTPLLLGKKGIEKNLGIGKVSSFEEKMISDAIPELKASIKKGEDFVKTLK

[3] = system: CDK; settings: Knockaert et al.; cited from earlier work

Question: Which water solubility [1] does the source give for `NS(=O)(=O)c1ccc(S(=O)(=O)Nc2cccc3c(Cl)c[nH]c23)cc1` [E7070] here?
Answer: The water solubility was “poor in water solubility”.

Question: With `O=C1Cc2c([nH]c3ccccc23)-c2ccccc2N1` [paullone] as the molecule, how does the “inhibition of mMDH activity” value [2] read?
Answer: Its value is “inhibits mMDH activity with certainty”.

Question: And the “inhibition of CDK” value [3]?
Answer: The value was “inhibitor”.
